Source: US20190030048A1, “CASEIN MICELLES FOR NANOENCAPSULATION OF HYDROPHOBIC COMPOUNDS” (TECHNION RESEARCH AND DEVELOPMENT FOUNDATION LTD., priority 2006, published 2019)
Values joined by “and” are separate entries in the source; they are usually repeats but may differ in a detail not shown here. Equal values may be shown once. Read-outs that look alike come from different tables or passages of the source.

Columns and labels:
[1] = Analytical fractionation (centrifugation) and RP-HPLC determination of vitamin D2 content in micelle pellet and serum; assay type: physicochemical; conditions: for recovered vitamin D2 found incorporated into the micelles (encapsulation efficiency): D2-rCM suspension
Procedure: Micelle preparations were centrifuged at 20° C. and 25,000×g for one hour and the supernatant was separated from the pellet by decantation. The supernatant was then ultra-filtered using Amicon 8050 stirred ultrafiltration cell with a 10,000 Da nominal molecular weight limit membrane (Millipore). All fractions were collected and analyzed for vitamin D2 content.
Each sample was then poured into a separatory funnel. […] After gentle mixing the phases were allowed to separate.

## C=C1CC[C@H](O)C/C1=C/C=C1\CCC[C@]2(C)[C@@H]([C@H](C)/C=C/[C@H](C)C(C)C)CC[C@@H]12 [vitamin D2, Vitamin D2]
[1]; CM prepared by ultra-high pressure homogenization
  vitamin concentration in the micelle pellet compared to the supernatant (serum): 4-5 times
[1]; CM prepared by ultra-high pressure homogenization, pellet
  vitamin content of pellet: 30.3±0.4 micrograms/mL
[1]; CM prepared by ultra-high pressure homogenization, supernatant
  vitamin content of supernatant: 6.7±0.7 micrograms/mL
[1]; more typically
  recovered vitamin D2 found incorporated into the micelles (encapsulation efficiency): 45-60%
[1]; overall range
  recovered vitamin D2 found incorporated into the micelles (encapsulation efficiency): 25-75%
[1]; D2-rCM, micelle pellet
  vitamin D2 concentration in the rCM: 44 to 57 µg/mL
[1]; D2-rCM, serum
  vitamin D2 concentration in serum: 2 to 8 µg/mL
[1]; D2-rCM, more typically
  vitamin D2 concentration in the rCM relative to its concentration in serum: 4-10 times and 5-10 times
0 h
  Percent of vitamin D2 remaining, micelle pellet: 100%
serum, 0 h
  Percent of vitamin D2 remaining, UV exposed serum (control II): 100%
  Percent of vitamin D2 remaining, serum: 100%
serum, 3 h
  Percent of vitamin D2 remaining, UV exposed serum (control II): 0.11%
